Where “and” joins values, the source holds several entries; their conditions need not be identical. Identical values can stand only once.
Legend:
[1] = system: Lactobacillus fermentum (ATCC 14931); assay: Glucose Uptake Index (GUI) of Lactobacillus fermentum culture with 5% v/v ionic liquid; format: cell-based; conditions: MRS medium, 16 hours, 30° C., paired control GUI 99.8, 26.5 or 94.6
[2] = Extraction of ethanol from an aqueous solution by ionic liquid, HPLC; format: physicochemical; conditions: concentration in aqueous solution after overnight equilibration with 5 vol % ionic liquid; control 684 mM
Method: (§1) Ethanol and isobutanol concentration in the solution was measured using HPLC as described above following thorough mixing and overnight equilibration of the contents of the vial.

[3] = system: Lactobacillus zeae (ATCC 15820); assay: Glucose Uptake Index (GUI) of Lactobacillus zeae culture with 5% v/v ionic liquid
Method: This media was made per bottle instructions using sterilized water, and was then again filter sterilized before use. The test tubes were incubated at 30° C. at 175 rpm in an Inova Incubator (Karlsbad, Sweden). After 24 hours, the test tubes were removed and stored at 4° C.
A portion (50 μL) of each stock culture prepared as above was inoculated into separate 15 mL sterile polypropylene culture tubes containing fresh MRS medium (3 mL). These tubes were incubated for four hours at 30° C. at 175 rpm. After four hours, one of these culture tubes was inoculated with 150 μL (5% v/v) of each of the ionic liquids as listed in Table 1 below. […] Each tube that was inoculated with an ionic liquid was also paired with a tube that received no ionic liquid and was used as a control.
All culture tubes were then incubated again under the same conditions for another 16 hours. After 16 hours, the culture tubes were stored at −80° C. Analytical samples were taken from each culture tube by thawing the samples and spinning them at 28,000 rpm and 20° C. for ten minutes in a Sorvall Instruments RC3C (Newtown Conn.) centrifuge. One milliliter of supernatant was removed from each tube and was subjected to high performance liquid chromatography (HPLC) analysis using an Agilent (Palo Alto Calif.) HPLC 1100 with a BioRad Aminex 87-H using 0.008 N sulfuric acid with both diode array and refractive index detection, and an Agilent HPLC 1100 with a Shodex OH-pak column using 0.01 N sulfuric acid. Data analysis was performed using the Agilent Chemstation software and Microsoft Excel.
The glucose uptake index was calculated by taking the total glucose consumed in a fermentation sample, whether or not the sample contained an ionic liquid, and dividing it by the total initial glucose present in the broth at the start of fermentation.

[4] = Extraction of isobutanol from an aqueous solution by ionic liquid, HPLC; format: physicochemical; conditions: concentration in aqueous solution after overnight equilibration with 5 vol % ionic liquid; control 416 mM
Method: as §1

Row | Molecule | GUI of Sample (Glucose Utilization Index in the presence of 5% (v/v) of the ionic liquid phase) [1] | Ethanol [2] [mM] | GUI of Sample (Glucose Utilization Index in the presence of 5% (v/v) of the ionic liquid phase) [3] | Isobutanol [4] [mM]
1 | 1-butyl-3-methylimidazolium 1,1,2,3,3,3-hexafluoropropanesulfonate [[BMIM] [HFPS]] | 8.0 and 11.5 | – | – | –
2 | 1-butyl-3-methylimidazolium 1,1,2-trifluoro-2-(perfluoroethoxy)ethanesulfonate [[BMIM] [TPES]] | 7.21 | – | – | –
3 | 1-butyl-3-methylimidazolium 1,1,2-trifluoro-2-(trifluoromethoxy)ethanesulfonate [[BMIM] [TTES]] | 16.2 | – | – | –
4 | 1-butyl-3-methylimidazolium 2-(1,2,2,2-tetrafluoroethoxy)-1,1,2,2-tetrafluoroethanesulfonate [[BMIM] [FS]] | 24.0 | – | – | –
5 | 1-butyl-3-methylimidazolium bis(trifluoromethylsulfonyl)imide [[BMIM] [Tf2N]] | 26.8 | – | – | –
6 | 1-butyl-3-methylpyrrolidinium bis(trifluoromethylsulfonyl)imide [[BMP] [Tf2N]] | 0.96 | 676 | 49.8 | 391
7 | 1-ethyl-3-methylimidazolium bis(pentafluoroethylsulfonyl)imide [[EMIM] [BEI]] | 25.5 | – | 36.0 | –
8 | 1-ethyl-3-methylimidazolium bis(trifluoromethylsulfonyl)imide [[EMIM] [Tf2N]] | 54.5 | 670 | 51.2 | 389
9 | 1-hexyl-3-methylimidazolium bis(trifluoromethylsulfonyl)imide [[HMIM] [Tf2N]] | 19.5 | 678 | 66.2 | 388
10 | 3-methyl-1-propylpyridinium bis(trifluoromethylsulfonyl)imide [[PMPy] [Tf2N]] | 26.1 | – | 63.5 | –
11 | CCCCn1cc[n+](C)c1.F[B-](F)(F)F [[BMIM] [BF4], 1-butyl-3-methylimidazolium tetrafluoroborate] | 9.74 | – | – | –
12 | CCCCn1cc[n+](C)c1.F[P-](F)(F)(F)(F)F [[BMIM] [PF6], 1-butyl-3-methylimidazolium hexafluorophosphate] | 88.3 | – | – | –
13 | CCCCCCn1cc[n+](C)c1.FC(F)(F)C(F)(F)[P-](F)(F)(F)(C(F)(F)C(F)(F)F)C(F)(F)C(F)(F)F [[HMIM] [FAP], 1-hexyl-3-methylimidazolium tris(pentafluoroethyl)trifluorophosphate] | 84.7 | 680 | – | 404
14 | tetradecyl(tri-n-hexyl)phosphonium 1,1,2-trifluoro-2-(perfluoroethoxy)ethanesulfonate [[6,6,6,14-P] [TPES]] | 92.8 | – | 62.8 | –
